Source: patent US7300939B2, “Substituted 1-propiolylpiperazine compounds, their preparation and use” (Gruenenthal GmbH, priority 2005, dated 2007)
Counter-ions that a name gives are not always drawn.

These molecules were tested against T1, mGluR5 receptor (Sus scrofa, UniProt I3LUI7) (assay: [3H]-MPEP binding in the mGluR5 receptor binding assay (pig brain homogenate)). Conditions: 10 μM; pig brain homogenate; 5 nM [3H]-MPEP.
T1 construct: from tissue; host or cells: pig brain halves without medulla, cerebellum and pons
T1 sequence (I3LUI7 19-1212): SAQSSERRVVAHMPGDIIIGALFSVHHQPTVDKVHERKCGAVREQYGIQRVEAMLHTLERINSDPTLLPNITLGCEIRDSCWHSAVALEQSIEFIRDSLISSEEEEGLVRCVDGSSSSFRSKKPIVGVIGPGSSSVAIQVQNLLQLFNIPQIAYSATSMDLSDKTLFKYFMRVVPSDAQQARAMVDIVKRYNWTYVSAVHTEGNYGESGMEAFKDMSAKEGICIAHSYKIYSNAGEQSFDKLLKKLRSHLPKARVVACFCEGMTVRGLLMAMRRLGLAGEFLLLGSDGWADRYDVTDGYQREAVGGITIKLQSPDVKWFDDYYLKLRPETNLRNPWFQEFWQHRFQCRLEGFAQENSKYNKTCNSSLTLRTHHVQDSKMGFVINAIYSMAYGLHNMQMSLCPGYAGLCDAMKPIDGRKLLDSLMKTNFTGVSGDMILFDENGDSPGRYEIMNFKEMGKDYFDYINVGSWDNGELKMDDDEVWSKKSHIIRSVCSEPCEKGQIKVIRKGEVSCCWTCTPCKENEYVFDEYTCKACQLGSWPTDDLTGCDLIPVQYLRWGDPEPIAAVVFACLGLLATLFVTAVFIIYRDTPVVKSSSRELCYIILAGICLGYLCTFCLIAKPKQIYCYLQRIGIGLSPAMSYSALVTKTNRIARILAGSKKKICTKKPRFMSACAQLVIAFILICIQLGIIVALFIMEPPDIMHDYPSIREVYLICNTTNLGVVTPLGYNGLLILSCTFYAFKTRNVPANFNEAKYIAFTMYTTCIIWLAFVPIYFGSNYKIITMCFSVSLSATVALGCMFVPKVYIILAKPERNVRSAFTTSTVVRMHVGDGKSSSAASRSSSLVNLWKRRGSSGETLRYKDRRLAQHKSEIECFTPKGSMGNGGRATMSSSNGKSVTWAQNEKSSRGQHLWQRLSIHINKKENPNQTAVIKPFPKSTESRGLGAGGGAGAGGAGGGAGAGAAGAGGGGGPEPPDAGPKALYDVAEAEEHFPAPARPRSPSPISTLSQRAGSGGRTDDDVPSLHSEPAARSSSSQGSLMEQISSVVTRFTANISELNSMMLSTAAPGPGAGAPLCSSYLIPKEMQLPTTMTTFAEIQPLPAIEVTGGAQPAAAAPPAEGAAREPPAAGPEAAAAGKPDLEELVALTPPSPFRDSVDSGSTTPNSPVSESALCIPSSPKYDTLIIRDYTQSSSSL
Protocol: I. Method the Determination of the Inhibition of the [^3H]-MPEP Binding in the mGluR5 Receptor Binding Assay
Pig brain homogenate is prepared by homogenization (Polytron PT 3000, Kinematica AG, 10,000 revolutions per minute 90 seconds) of pig brain halves without medulla, cerebellum and pons in a buffer solution having a pH of 8.0 (30 mM of hepes, Sigma, order no. H3375+1 tablet of Complete to 100 ml, Roche Diagnostics, order no. 1836145) in a ratio of 1:20 (brain weight/volume) and differential centrifugation at 900×g and 40,000×g. In each case 450 μg of protein from brain homogenate are incubated with 5 nM [^3H]-MPEP (Tocris, order no. R1212) (MPEP=2-methyl-6-(3-methoxyphenyl)ethynylpyridine) and the compounds to be investigated (10 μM in the test) in a buffer solution (as above) in 250 μl incubation batches in 96-well microtiter plates at room temperature 60 min.
Thereafter, the batches are filtered with the aid of a Brandel cell harvester (Brandel, Robotic 9600 model) onto Unifilter plates with glass fiber filter mats (Perkin Elmer, order no. 6005177) and then rinsed with buffer solution (as above) 3 times with 250 μl per sample each time. The filter plates are then dried 60 min at 55° C. 30 μl Ultima Gold™ scintillator (Packard BioScience, order no. 6013159) are subsequently added per well and, after 3 hours, the samples are measured on a β-counter (Mikrobeta, Perkin Elmer). The non-specific binding is determined by addition of 10 μM of MPEP (Tocris, order no. 1212).

Structure (SMILES) | mGluR5-receptor (% inhibition 10 μM) in pigs
Cc1cccc(C#CC(=O)N2CCN(c3nccs3)CC2)c1.Cl [Example AAA54, 4-(Thiazol-2-yl)-1-(3-(3-tolyl)propiolyl)piperazine hydrochloride] | 97%
O=C(C#Cc1cccc(Cl)c1)N1CCN(c2nccs2)CC1 [Example AAA24, 4-(Thiazol-2-yl)-1-(3-(3-chlorophenyl)propiolyl)piperazine] | 88%
C[C@H]1CN(c2nccs2)CCN1C(=O)C#Cc1ccccc1 [Example AAA64, (S)-2-Methyl-4-(thiazol-2-yl)-1-(3-phenylpropiolyl)piperazine] | 72%
O=C(C#Cc1ccccc1Cl)N1CCN(c2nccs2)CC1 [Example AAA23, 4-(Thiazol-2-yl)-1-(3-(2-chlorophenyl)propiolyl)piperazine] | 70%
O=C(C#Cc1ccccc1)N1CCN(c2ncc([N+](=O)[O-])s2)CC1 [Example AAA86, 4-(5-Nitrothiazol-2-yl)-1-(3-phenylpropiolyl)piperazine] | 31%
CC1CN(c2nccs2)CCN1C(=O)C#Cc1ccccc1 (centres unmarked) [Example AAA63, 2-Methyl-4-(thiazol-2-yl)-1-(3-phenylpropiolyl)piperazine] | 89%
Cc1nsc(N2CCN(C(=O)C#Cc3ccccc3)CC2)n1 [Example AAA00104, 4-(3-Methyl-1,2,4-thiadiazol-5-yl)-1-(3-phenylpropiolyl)piperazine] | 91%
Cc1ccc(C#CC(=O)N2CCN(c3ncc(C)s3)CC2)cc1 [CCC33, 4-(5-Methylthiazol-2-yl)-1-(3-(tol-4-yl)propiolyl)piperazine] | 43%
COc1ccccc1C#CC(=O)N1CCN(c2nccs2)CC1 [Example AAA12, 4-(Thiazol-2-yl)-1-(3-(2-methoxyphenyl)propiolyl)piperazine] | 34%
O=C(C#Cc1ccccc1)N1CCN(c2nc(C(F)(F)F)ns2)CC1 [Example AAA00105, 4-(3-Trifluoromethyl-1,2,4-thiadiazol-5-yl)-1-(3-phenylpropiolyl)piperazine] | 65%
Nc1ccccc1C#CC(=O)N1CCN(c2nccs2)CC1 [Example AAA6, 4-(Thiazol-2-yl)-1-(3-(2-aminophenyl)propiolyl)piperazine] | 54%
CC(C)(C)c1csc(N2CCN(C(=O)C#Cc3ccc(N)cc3)CC2)n1 [Example AAA00107, 4-(4-tert-Butylthiazol-2-yl)-1-(3-(4-aminophenyl)propiolyl)piperazine] | 30%
O=C(C#Cc1ccccc1)N1CCN(c2nc(-c3ccccc3)cs2)CC1 [Example AAA99, 4-(4-Phenylthiazol-2-yl)-1-(3-phenylpropiolyl)piperazine] | 87%
N#Cc1cc(C#CC(=O)N2CCN(c3nccs3)CC2)ccc1F [Example AAA41, 4-(Thiazol-2-yl)-1-(3-(3-cyano-4-fluorophenyl)propiolyl)piperazine] | 78%
CS(=O)(=O)c1nsc(N2CCN(C(=O)C#Cc3ccccc3)CC2)n1 [Example AAA00101, 4-(3-Methansulfonyl-1,2,4-thiadiazol-5-yl)-1-(3-phenylpropiolyl)piperazine] | 30%
Cc1nc(N2CCN(C(=O)C#Cc3ccccc3)CC2)sc1C [Example AAA89, 4-(4,5-Dimethylthiazol-2-yl)-1-(3-phenylpropiolyl)piperazine] | 86%
C[S+]([O-])c1cccc(C#CC(=O)N2CCN(c3nccs3)CC2)c1 (centres unmarked) [Example AAA00115, 4-(Thiazol-2-yl)-1-(3-(3-methylsulfinylphenyl)propiolyl)piperazine] | 17%
CCOC(=O)c1cccc(C#CC(=O)N2CCN(c3nccs3)CC2)c1 [Example AAA3, 4-(Thiazol-2-yl)-1-(3-(3-carboxyphenyl)propiolyl)piperazine ethyl ester] | 40%
O=C(C#Cc1cccnc1)N1CCN(c2nccs2)CC1 [Example AAA33, 4-(Thiazol-2-yl)-1-(3-pyrid-3-ylpropiolyl)piperazine] | 50%
CC(=O)Nc1cccc(C#CC(=O)N2CCN(c3nccs3)CC2)c1 [Example AAA44, 4-(Thiazol-2-yl)-1-(3-(3-acetaminophenyl)propiolyl)piperazine] | 30%

Same assay, conditions: Table I

Structure (SMILES) | IC50
O=C(C#Cc1ccccc1)N1CCN(c2nccs2)CC1 [Example 1, 1-(3-phenylpropiolyl)-4-(thiazol-2-yl)piperazine] | 100 nM

Same assay, conditions: Table II; unit inferred

Structure (SMILES) | IC50
O=C(C#Cc1ccccc1)N1CCN(c2nccs2)CC1 [Example AAA56, 4-(Thiazol-2-yl)-1-(3-phenylpropiolyl)piperazine hydrochloride] | 150 nM
Cc1cccc(C#CC(=O)N2CCN(c3nccs3)CC2C)c1 (centres unmarked) [Example AAA68, 2-Methyl-4-(thiazol-2-yl)-1-(3-(3-tolyl)propiolyl)piperazine] | 13 nM
O=C(C#Cc1ccccc1F)N1CCN(c2nccs2)CC1 [Example AAA21, 4-(Thiazol-2-yl)-1-(3-(2-fluorophenyl)propiolyl)piperazine] | 830 nM
CC1CN(c2nccs2)CCN1C(=O)C#Cc1cccc(Cl)c1 (centres unmarked) [AAA00119, 2-Methyl-4-(thiazol-2-yl)-1-(3-(3-chlorophenyl)propiolyl)piperazine] | 9 nM
O=C(C#Cc1ccoc1)N1CCN(c2nccs2)CC1 [Example AAA74, 4-(Thiazol-2-yl)-1-(3-(3-furyl)propiolyl)piperazine] | 3190 nM
CC(C)(C)C1CN(c2nccs2)CCN1C(=O)C#Cc1ccccc1 (centres unmarked) [AAA00121, 2-tert-Butyl-4-(thiazol-2-yl)-1-(3-phenylpropiolyl)piperazine] | 110 nM

The molecules below were run against T2, mGluR5 receptor (Rattus norvegicus, UniProt P31424) (assay: Ca2+ influx in the mGluR5 receptor assay (rat cortical neurons, FlexStation)). Conditions: Table I; 10 μM DHPG.
T2 construct: Cortical neurons are prepared from postnatal rats (P2-6) under sterile conditions; endogenous in cells; host or cells: primary cortical neurons from postnatal rats (P2-6)
T2 sequence (P31424 21-1203): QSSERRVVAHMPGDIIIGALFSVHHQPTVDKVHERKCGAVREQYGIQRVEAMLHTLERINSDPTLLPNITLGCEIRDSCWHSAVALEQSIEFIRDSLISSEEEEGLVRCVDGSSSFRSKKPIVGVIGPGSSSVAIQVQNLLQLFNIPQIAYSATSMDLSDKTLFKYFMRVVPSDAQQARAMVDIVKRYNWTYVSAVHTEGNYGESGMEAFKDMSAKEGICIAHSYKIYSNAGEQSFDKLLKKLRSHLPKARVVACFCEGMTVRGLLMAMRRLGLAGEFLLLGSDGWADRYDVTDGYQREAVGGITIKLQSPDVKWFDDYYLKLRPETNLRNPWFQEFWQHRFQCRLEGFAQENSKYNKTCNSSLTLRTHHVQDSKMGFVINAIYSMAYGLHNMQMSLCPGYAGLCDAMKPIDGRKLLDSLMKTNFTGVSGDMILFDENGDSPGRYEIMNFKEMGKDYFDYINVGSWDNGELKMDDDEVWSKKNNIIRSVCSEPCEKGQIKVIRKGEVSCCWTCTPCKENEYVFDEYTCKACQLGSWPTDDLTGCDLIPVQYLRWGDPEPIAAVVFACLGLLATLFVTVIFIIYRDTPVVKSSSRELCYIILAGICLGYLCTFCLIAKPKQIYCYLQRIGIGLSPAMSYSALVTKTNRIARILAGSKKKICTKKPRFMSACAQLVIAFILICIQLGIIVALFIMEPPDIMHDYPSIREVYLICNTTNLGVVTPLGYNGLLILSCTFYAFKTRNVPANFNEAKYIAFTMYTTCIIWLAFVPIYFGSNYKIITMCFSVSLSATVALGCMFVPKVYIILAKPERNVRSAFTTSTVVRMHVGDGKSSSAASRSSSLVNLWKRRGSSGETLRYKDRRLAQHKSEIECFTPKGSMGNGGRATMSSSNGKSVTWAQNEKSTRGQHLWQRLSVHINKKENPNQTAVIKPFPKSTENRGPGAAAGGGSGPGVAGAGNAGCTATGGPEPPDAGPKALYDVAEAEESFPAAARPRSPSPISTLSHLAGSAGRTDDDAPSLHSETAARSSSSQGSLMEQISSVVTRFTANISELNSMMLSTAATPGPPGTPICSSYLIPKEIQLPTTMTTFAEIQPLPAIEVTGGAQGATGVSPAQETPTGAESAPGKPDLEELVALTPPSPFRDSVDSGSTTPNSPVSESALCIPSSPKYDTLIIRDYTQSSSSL
Type: cell-based
From the text: II. Method Determination of the Ca^2+ Influx in the mGluR5 Receptor Assay
An agonistic and/or antagonistic action of substances can be determined with the following assay on the mGluR5 receptor of the rat species. According to this assay, the intracellular release of Ca^2+ after activation of the mGluR5 receptor is quantified with the aid of a Ca^2+-sensitive dyestuff (Fluo-4 type, Molecular Probes Europe BV, Leiden, Holland) in a FlexStation (Molecular Devices, Sunnyvale, USA).
Preparation of Cortical Neurons: […]
For the functional investigation, the cells are loaded with 2 μM of Fluo-4 and 0.01 vol. % Pluronic F127 (Molecular Probes Europe BV, Leiden, Holland) in HBSS buffer solution (Hank's buffer saline solution, Gibco Invitrogen GmbH, Karlsruhe, Germany) 30 min at 37° C. […] The Ca^2+-dependent fluorescence is measured before and after the addition of substances (λex=485 nm, λem=525 nm). Quantification is effected by measurement of the highest fluorescence intensity over time. […] After incubation 3 minutes, 10 μM of DHPG ((S)-3,5-dihydroxyphenylglycine, Tocris Biotrend Chemikalien GmbH, Cologne, Germany) are applied and the influx of Ca^2+ is determined simultaneously. mGluR5 antagonists led to a suppression of the Ca^2+ influx. […]

Structure (SMILES) | IC50
O=C(C#Cc1ccccc1)N1CCN(c2nccs2)CC1 [Example 1, 1-(3-phenylpropiolyl)-4-(thiazol-2-yl)piperazine] | 190 nM

The molecules below were run on rats (assay: Formalin test in rats). Conditions: 10.0 mg/kg i.v.
Type: in vivo, rat

Structure (SMILES) | Reduction of nociceptive behavior of rats compared with control rats [%]
Cc1cccc(C#CC(=O)N2CCN(c3nccs3)CC2)c1.Cl [Example AAA54, 4-(Thiazol-2-yl)-1-(3-(3-tolyl)propiolyl)piperazine hydrochloride] | 72%

Same assay, conditions: 46.4 mg/kg i.p.

Structure (SMILES) | Reduction of nociceptive behavior of rats compared with control rats [%]
O=C(C#Cc1cccc(Cl)c1)N1CCN(c2nccs2)CC1 [Example AAA24, 4-(Thiazol-2-yl)-1-(3-(3-chlorophenyl)propiolyl)piperazine] | 43%
O=C(C#Cc1ccccc1)N1CCN(c2nccs2)CC1 [Example AAA56, 4-(Thiazol-2-yl)-1-(3-phenylpropiolyl)piperazine hydrochloride] | 85%

Same assay, conditions: 46.4 mg/kg p.o.

Structure (SMILES) | Reduction of nociceptive behavior of rats compared with control rats [%]
Cc1cccc(C#CC(=O)N2CCN(c3nccs3)CC2C)c1 (centres unmarked) [Example AAA68, 2-Methyl-4-(thiazol-2-yl)-1-(3-(3-tolyl)propiolyl)piperazine] | 66%
